In patent publication US20190202836A1, “SELECTIVE DUAL INHIBITORS OF PI3 DELTA AND GAMMA PROTEIN KINASES” (Rhizen Pharmaceuticals SA, priority 2014, published 2019):
pEC50, pIC50: −log10 of the molar value.

How the values were obtained:
[1] = tested on: mouse whole blood B-cell proliferation (CD45R); test: Assay 6B: Inhibition of LPS induced CD45R in mouse whole blood; format: cell-based; conditions: diluted mouse whole blood, 72 hours, read-out: EC50, inhibition of LPS-induced mouse whole blood B-cell proliferation (CD45R expression)
Method: The effect of Compound A1 on modulating B-cell receptor (BCR)-activated proliferation of human or mouse B-lymphocytes was determined. CD19 is a protein present on B cells from the earliest recognizable B-lineage cells during development to B-cell blasts but is however lost on maturation to plasma cells. LPS is an endotoxin and a major component of environmental microbes with a potent mitogenic activity on B-cells via the […].
Briefly, diluted mouse whole blood was treated with of DMSO or desired concentrations of Compound A1. Samples were induced with LPS 15 minutes after compound addition, and incubated for 72 hours at 37° C. and 5% CO2. Cells positive for CD45 and CD45R were determined by flow cytometry. Data are expressed as percentage CD45R positive cells in the total population.

Female Wistar rats = test: Assay 7: Lipopolysaccharide induced pulmonary neutrophilia in female Wistar rat model; format: in vivo; conditions: 10 mg/kg, oral, LPS intratracheally, BAL fluid 6 hours after LPS
Method: After the quarantine period, fasted animals were randomized and divided into various groups depending on their body weights. The test compound (Compound A1) was prepared as a suspension in a vehicle consisting of 0.5% methylcellulose in which Tween 80 as a suspending agent. The compound or vehicle was administered by oral gavage at a volume of 10 mL/kg. Female Wistar rats were anaesthetized with ketamine and LPS solution was administered intratracheally one hour after compound administration at a dose of 1 mg/kg. 6 hours after LPS instillation, animals were exsanguinated under anaesthesia, and then the trachea was cannulated and the lungs were lavaged with 5 ml aliquots of heparinised PBS (1 unit/ml) four times through a tracheal cannula (total volume 20 mL). Bronchoalveolar lavage (BAL) fluid was stored at 2-8° C. until assayed for total cell and differential leukocyte count. Bronchioalveolar fluid was centrifuged (500×g for 10 minutes) and the resulting cell pellet was resuspended in 0.5 ml of heparinised saline. The total numbers of white blood cells were determined in BAL fluid or blood by using a blood cell counter and was adjusted to 1×10^6 cell/ml. Differential cell count was calculated manually. […] The number of each cell type among 300 white blood cells in the cell smear was determined and expressed as a percentage. The number of […] in each BALf or blood was calculated.

[2] = tested on: T-lymphoma (MOLT-4, Jurkat, CCRF-CEM, Hut-78 and HuT-102) cells; test: Assay 2: In vitro cell proliferation assay in leukemic cell lines (MTT); format: cell-based
Method: Growth inhibition assays were carried out using 10% FBS supplemented media. Cells were seeded at a concentration of 5000-20,000 cells/well in a 96-well plate. Test compounds at a concentration ranging from 0.01 to 10000 nM were added after 24 hours. Growth was assessed using the 3-[4,5-dimethylthiazol-2-yl]-2,5-diphenyltetrazolium bromide (MTT) dye reduction test at 0 hour (prior to the addition of the test compound) and 72 hours after the addition of test compound. Absorbance was read on a Fluostar Optima (BMG Labtech, Germany) at a wavelength of 450 nm. Data were analysed using GraphPad Prism and percent inhibition due to the test compound compared to the control was calculated accordingly.

PI3K alpha = target: T1, PI3K alpha (Mus musculus, UniProt P42337); test: Assay 4A4: PDGF induced Akt phosphorylation in 3T3 cells; format: cell-based; conditions: 3T3 fibroblasts
T1 construct: endogenous in cells; host or cells: 3T3 fibroblasts
T1 sequence (P42337 whole entry): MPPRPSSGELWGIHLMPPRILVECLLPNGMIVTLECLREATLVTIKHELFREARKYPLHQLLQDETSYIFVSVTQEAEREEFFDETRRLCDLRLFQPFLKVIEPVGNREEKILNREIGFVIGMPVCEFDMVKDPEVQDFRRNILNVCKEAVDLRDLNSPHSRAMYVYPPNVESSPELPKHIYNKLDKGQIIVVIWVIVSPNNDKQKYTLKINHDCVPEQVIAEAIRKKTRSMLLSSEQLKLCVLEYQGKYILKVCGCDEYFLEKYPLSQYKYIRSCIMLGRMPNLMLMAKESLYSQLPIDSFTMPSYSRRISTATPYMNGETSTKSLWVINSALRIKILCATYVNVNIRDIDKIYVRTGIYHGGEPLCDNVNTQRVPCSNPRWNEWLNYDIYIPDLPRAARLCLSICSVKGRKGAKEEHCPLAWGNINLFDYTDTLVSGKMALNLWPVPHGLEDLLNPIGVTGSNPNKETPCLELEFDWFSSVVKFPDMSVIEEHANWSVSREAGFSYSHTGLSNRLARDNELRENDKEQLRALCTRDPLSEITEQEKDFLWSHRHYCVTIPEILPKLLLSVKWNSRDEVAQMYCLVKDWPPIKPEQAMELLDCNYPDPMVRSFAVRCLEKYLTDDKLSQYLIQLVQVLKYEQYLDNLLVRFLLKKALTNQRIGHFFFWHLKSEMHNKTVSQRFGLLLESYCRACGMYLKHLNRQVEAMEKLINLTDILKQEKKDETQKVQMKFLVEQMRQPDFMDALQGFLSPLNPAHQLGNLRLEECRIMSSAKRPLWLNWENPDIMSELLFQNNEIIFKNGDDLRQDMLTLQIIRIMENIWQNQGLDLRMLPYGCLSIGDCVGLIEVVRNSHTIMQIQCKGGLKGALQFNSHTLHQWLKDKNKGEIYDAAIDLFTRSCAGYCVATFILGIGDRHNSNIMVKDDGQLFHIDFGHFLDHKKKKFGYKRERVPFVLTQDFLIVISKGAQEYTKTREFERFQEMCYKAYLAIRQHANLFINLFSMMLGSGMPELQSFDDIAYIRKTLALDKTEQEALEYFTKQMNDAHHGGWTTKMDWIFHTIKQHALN
T1 sequence (P26450 whole entry partner): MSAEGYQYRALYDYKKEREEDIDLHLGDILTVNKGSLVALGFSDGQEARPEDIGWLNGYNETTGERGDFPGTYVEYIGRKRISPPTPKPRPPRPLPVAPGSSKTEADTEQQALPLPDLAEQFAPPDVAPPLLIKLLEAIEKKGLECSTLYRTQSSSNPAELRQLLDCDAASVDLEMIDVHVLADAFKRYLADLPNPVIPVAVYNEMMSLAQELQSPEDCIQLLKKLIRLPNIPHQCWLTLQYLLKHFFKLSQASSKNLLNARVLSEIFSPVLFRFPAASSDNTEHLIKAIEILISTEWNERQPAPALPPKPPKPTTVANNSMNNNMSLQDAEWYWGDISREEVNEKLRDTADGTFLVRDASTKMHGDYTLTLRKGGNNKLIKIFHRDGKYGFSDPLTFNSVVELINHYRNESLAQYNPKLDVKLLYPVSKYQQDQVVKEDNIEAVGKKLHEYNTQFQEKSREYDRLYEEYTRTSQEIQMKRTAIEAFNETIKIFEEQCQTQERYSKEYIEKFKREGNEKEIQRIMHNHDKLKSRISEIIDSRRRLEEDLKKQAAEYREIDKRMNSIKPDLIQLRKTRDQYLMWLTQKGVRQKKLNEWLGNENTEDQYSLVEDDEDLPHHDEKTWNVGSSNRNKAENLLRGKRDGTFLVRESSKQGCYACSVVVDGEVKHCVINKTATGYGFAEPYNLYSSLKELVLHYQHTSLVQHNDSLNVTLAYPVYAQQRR
Method: The objective of this study was to determine the effect of Compound A1 on PI3Kα kinase mediated AktS473 phosphorylation in PDGF induced 3T3 fibroblasts. • 3T3 cells were treated with desired concentrations of the test compound for 15 minutes. 1 ml of 2× PDGF was added such that the final concentration was 20 ng/ml and incubated for 10 minutes. • Media was discarded and washed with 1 ml of ice-cold 1× PBS. • 250 μl of cell lysis buffer was added and incubated on ice for 30 minutes. • Samples were centrifuged and supernatant was collected and stored at −80° C. until analysis. • Samples were analyzed by Western Blotting using pAKT (S473) as the primary and anti-rabbit IgG-HRP as a secondary antibody. • Intensity of the bands was determined using ImageJ 1.42q (NIH, USA) and normalized to Actin (loading control). Data was plotted using GraphPad Prism (Version 5.02).

[3] = tested on: pAKT in T-lymphoma (MOLT-4, Jurkat, CCRF-CEM and Hut-78) cell lines; test: Assay 3: Inhibition of AKT phosphorylation in leukemic cell lines; format: cell-based; conditions: 48 hours, Western Blotting, range over the cell lines, read-out: EC50, reduction in pAKT expression
Method: MOLT-4, Jurkat, CCRF-CEM, and Hut-78 cells were incubated with desired concentrations of compound for 48 hours. Cells were lysed and pAKT determined by Western Blotting. Bands were quantified using ImageJ and normalized to actin.

PI3Kβ = PI3Kβ (Homo sapiens, UniProt P42338); test: Assay 1: Fluorescent (HTRF) determination of PI3 kinase enzyme activity, PI3Kβ; format: biochemical
Chain of PI3Kβ (P42338 whole entry, canonical isoform): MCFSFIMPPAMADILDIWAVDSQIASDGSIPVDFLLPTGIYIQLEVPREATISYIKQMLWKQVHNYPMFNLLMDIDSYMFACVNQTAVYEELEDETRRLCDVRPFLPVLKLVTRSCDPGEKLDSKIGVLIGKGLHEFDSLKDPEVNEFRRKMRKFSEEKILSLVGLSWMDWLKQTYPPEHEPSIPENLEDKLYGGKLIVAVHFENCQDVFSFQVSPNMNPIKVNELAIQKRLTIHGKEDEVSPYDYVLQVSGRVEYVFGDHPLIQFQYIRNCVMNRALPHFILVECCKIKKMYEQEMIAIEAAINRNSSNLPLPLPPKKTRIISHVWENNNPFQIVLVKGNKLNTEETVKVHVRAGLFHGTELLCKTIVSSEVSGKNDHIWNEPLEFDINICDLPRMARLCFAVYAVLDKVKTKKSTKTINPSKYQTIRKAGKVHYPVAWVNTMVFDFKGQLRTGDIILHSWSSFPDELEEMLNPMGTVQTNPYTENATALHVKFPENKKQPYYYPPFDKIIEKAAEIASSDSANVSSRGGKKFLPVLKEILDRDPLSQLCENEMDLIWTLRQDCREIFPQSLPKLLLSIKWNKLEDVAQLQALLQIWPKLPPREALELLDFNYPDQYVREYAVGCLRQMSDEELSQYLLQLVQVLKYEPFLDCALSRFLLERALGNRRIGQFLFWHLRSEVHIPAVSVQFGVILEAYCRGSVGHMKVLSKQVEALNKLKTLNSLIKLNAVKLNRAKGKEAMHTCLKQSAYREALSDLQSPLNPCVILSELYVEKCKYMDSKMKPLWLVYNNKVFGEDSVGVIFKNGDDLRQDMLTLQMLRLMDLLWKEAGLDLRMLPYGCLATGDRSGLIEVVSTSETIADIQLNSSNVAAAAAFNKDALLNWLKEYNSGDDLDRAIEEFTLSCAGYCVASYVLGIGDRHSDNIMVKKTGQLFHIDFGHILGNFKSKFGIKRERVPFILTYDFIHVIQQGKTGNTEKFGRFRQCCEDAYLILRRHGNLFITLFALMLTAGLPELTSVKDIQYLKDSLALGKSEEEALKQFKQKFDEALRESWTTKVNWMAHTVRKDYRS
Chain of PI3Kβ (P27986 whole entry partner, canonical isoform): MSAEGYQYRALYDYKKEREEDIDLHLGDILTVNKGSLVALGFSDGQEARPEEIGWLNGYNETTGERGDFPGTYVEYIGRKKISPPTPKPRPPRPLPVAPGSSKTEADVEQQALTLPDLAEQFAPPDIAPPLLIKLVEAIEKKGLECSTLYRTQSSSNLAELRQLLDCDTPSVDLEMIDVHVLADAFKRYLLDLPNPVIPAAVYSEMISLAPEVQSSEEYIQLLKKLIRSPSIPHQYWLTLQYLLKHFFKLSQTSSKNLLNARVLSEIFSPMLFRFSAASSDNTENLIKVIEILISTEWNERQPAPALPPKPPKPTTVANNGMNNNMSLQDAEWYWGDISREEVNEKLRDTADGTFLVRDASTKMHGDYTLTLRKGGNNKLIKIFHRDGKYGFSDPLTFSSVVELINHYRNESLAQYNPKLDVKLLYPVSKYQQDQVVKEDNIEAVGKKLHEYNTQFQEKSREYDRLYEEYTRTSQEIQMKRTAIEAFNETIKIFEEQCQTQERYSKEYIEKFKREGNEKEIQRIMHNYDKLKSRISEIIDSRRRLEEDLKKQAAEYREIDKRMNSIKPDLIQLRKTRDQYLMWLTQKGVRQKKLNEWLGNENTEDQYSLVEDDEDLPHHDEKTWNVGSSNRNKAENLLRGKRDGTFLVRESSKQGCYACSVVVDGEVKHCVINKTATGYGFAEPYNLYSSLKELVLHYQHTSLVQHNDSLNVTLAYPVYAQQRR
Source text: Phosphoinositide 3 kinases (PI3K) belong to a class of lipid kinases that play a critical role in the regulation of several key cellular processes. The PI3K are capable of phosphorylating the 3-hydroxy position of phosphoinositols thereby generating second messengers involved in downstream signaling events. The homogenous time resolved fluorescence (HTRF) assay allows detection of 3,4,5-triphosphate (PIPS) formed as a result of phosphorylation of phosphotidylinositol 4,5-biphosphate (PIP2) by PI3K isoforms such as α, β, γ or δ.
PI3K isoform activity for α, β, γ or δ was determined using a PI3K human HTRF™ Assay Kit (Millipore, Billerica, Mass.) with modifications. All incubations were carried out at room temperature. 0.5 μl of 40× inhibitor (in 100% DMSO) or 100% DMSO were added to each well of a 384-well white plate (Greiner Bio-One, Monroe, N.C.) containing 14.5 μl 1× reaction buffer/PIP2 (10 mM MgCl2, 5 mM DTT, 1.38 μM PIP2) mix with or without enzyme, followed by 5 μl/well of 400 μM ATP and incubated for an additional 30 minutes. The reaction was terminated by adding 5 μl/well stop solution (Millipore, Billerica, Mass.). 5 μl of detection mix (Millipore, Billerica, Mass.) was then added to each well and incubated for 6-18 hours in the dark. HRTF ratio was measured on a microplate reader (BMG Labtech., Germany) at an excitation wavelength of 337 nm and emission wavelengths of 665 and 615 nm with an integration time of 400 msec counting delay of 50 msec.

## COc1ccc(-c2nn([C@@H](C)c3oc4cccc(F)c4c(=O)c3-c3cccc(F)c3)c3ncnc(N)c23)cc1NS(C)(=O)=O [Compound A1, (S)—N-(5-(4-amino-1-(1-(5-fluoro-3-(3-fluorophenyl)-4-oxo-4H-chromen-2-yl)ethyl)-1H-pyrazolo[3,4-d]pyrimidin-3-yl)-2-methoxyphenyl)methanesulfonamide]
[1]
  pEC50: 6.89
Female Wistar rats
  inhibition of neutrophil infiltration into the lungs compared to the control group: 65.29%
[2]; MOLT-4, Jurkat, CCRF-CEM, Hut-78 and HuT-102, MTT, 72 hours, range over the cell lines, read-out: GI50, reduction in T-lymphoma cell viability
  GI50: 2.5 to 12.8 µM
[2]; T-lymphoma cell lines, 72 hour incubation
  cytotoxicity over the 72 hour incubation period: did not display any apparent cytotoxicity
PI3K alpha; 10 μM
  inhibition of PDGF induced AktS473 phosphorylation at 10 μM: No inhibition
PI3K alpha; PDGF 20 ng/ml, read-out: Cellular IC50 PI3K alpha (PDGF induced pAKT in 3T3 fibroblasts)
  pIC50: < 5.00
[3]
  pEC50: 5.80 to 7.70
PI3Kβ
  inhibition at 1 µM: 46.8%
PI3Kβ; HTRF enzyme assay
  IC50: 1360 nM
PI3Kβ; selectivity profile, enzyme IC50
  Fold-Selectivity PI3Kβ: > 45 fold
